Test system: Plasmodium berghey
Experiment: Blood schizontocidal activity in infected mice (ED50, s.c., four-fold administration)
Assay type: in vivo, Plasmodium berghey; male albino mice
Conditions: mice infected with Plasmodium berghey, first 3 h after infection and on three subsequent days, smears D+4
Procedure: They have a pronounced blood schizontocidal activity. The activity of the substances in accordance with the invention can be determined, for example, in the animal experiment described hereinafter: Male albino mice weighing 18-20 g are used as the experimental animals. They are kept in climatized rooms at 22°-23° C. in groups of 5 animals per cage. They receive ad libitum a diet feed with low PABA content and drinking water. On the first day of the experiment (DO) the experimental animals are infected with Plasmodium berghey by intravenously injecting into each of the experimental animals 0.2 ml of heparinized blood of infected donor mice. The donor blood is diluted so that it contains 10^7 parasitized erythrocytes per 0.2 ml. In untreated control animals the parasitemia normally reaches 70-80% on the fourth day after the infection (D+4) and the experimental animals die between days +5 to +8. The substances to be tested are dissolved or suspended in distilled water or in a mixture of Tween 80, alcohol (96%) and water. Generally, in each case 0.5 ml of this solution or suspension is administered subcutaneously to groups of 5 experimental animals. The treatment is effected for the first time 3 hours after the infection as well as on the three subsequent days. Suitable dilutions of the test compounds are used for the titration of the activity. Per experiment 10 animals are treated in the same manner with the solution or suspension medium. 24 hours after the last treatment (D+4) blood smears with blood from tail veins are prepared from all animals and stained with giemsa. The average erythrocyte infection rate (parasitemia in %) in the control group as well as in the groups which have been treated with the compounds to be tested is determined by counting under the microscope. The difference in the average value of the infection rate between control group (100%) and the treated groups is calculated and expressed as the percentage reduction. The ED50 is determined mathematically from the results obtained. The ED50 in mg/kg is that dosage which, after four-fold administration, reduces to 50% the average erythrocyte infection rate in comparison to the control group. The results which have been obtained with representative members of the class of substance defined by formula I in the previously described experiment are compiled in the following Table. Moreover, the Table contains data concerning the toxicity of some of these compounds.

SMILES	Activity ED50 (dosage which, after four-fold administration, reduces to 50% the average erythrocyte infection rate versus control) [mg/kg]
CCCCCCCC[C@@]1(C)OO[C@@H]2C[C@H]1CC(=O)[C@@H]2C [(CH2)7CH3 (1R, 4R, 5S, 8R), (1R,4R,5S,8R)-4,8-dimethyl-4-octyl-2,3-dioxabicyclo[3.3.1]nonan-7-one]	6.4
CCCCCCCC[C@]1(C)OO[C@@H]2C[C@H]1CC(=O)[C@@H]2C [(CH2)7CH3 (1R, 4S, 5S, 8R), (1R,4S,5S,8R)-4,8-dimethyl-4-octyl-2,3-dioxabicyclo[3.3.1]nonan-7-one]	5.2
CCCCCCCCC[C@@]1(C)OO[C@@H]2C[C@H]1CC(=O)[C@@H]2C [(CH2)8CH3 (1R, 4R, 5S, 8R), (1R,4R,5S,8R)-4.8-dimethyl-4-nonyl-2,3-dioxabicyclo[3.3.1]nonan-7-one]	3.6
CCCCCCCCC[C@]1(C)OO[C@@H]2C[C@H]1CC(=O)[C@@H]2C [(CH2)8CH3 (1R, 4S, 5S, 8R), (1R,4S,5S,8R)-4,8-dimethyl-4-nonyl-2,3-dioxabicyclo[3.3.1]nonan-7-one]	6.0
CCCCCCCCCC[C@@]1(C)OO[C@@H]2C[C@H]1CC(=O)[C@@H]2C [(CH2)9CH3 (1R, 4R, 5S, 8R), (1R,4R,5S,8R)-4-decyl-4,8-dimethyl-2,3-dioxabicyclo[3.3.1]nonan-7-one]	5.2
CCCCCCCCCC[C@]1(C)OO[C@@H]2C[C@H]1CC(=O)[C@@H]2C [(CH2)9CH3 (1R, 4S, 5S, 8R), (1R,4S,5S,8R)-4-decyl-4,8-dimethyl-2,3-dioxabicyclo[3.3.1]-nonan-7-one]	3.4
CCCCCCCCCCC[C@@]1(C)OO[C@@H]2C[C@H]1CC(=O)[C@@H]2C [(CH2)10CH3 (1R, 4R, 5S, 8R), (1R,4R,5S,8R)-4,8-dimethyl-4-undecyl-2,3-dioxabicyclo[3.3.1]nonan-7-one]	5.2
CCCCCCCCCCC[C@]1(C)OO[C@@H]2C[C@H]1CC(=O)[C@@H]2C [(CH2)10CH3 (1R, 4S, 5S, 8R), (1R,4S,5S,8R)-4,8-dimethyl-4-undecyl-2,3-dioxabicyclo[3.3.1]nonan-7-one]	3.4
CCCCCCCCCCC[C@@]1(C)OO[C@H]2C[C@@H]1CC(=O)[C@H]2C [(CH2)10CH3 (1S, 4R, 5R, 8S), (1S,4R,5R,8S)-4,8-dimethyl-4-undecyl-2,3-dioxabicyclo[3.3.1]nonan-7-one]	4.6
CCCCCCCCCCC[C@]1(C)OO[C@H]2C[C@@H]1CC(=O)[C@H]2C [(CH2)10CH3 (1S, 4S, 5R, 8S), (1S,4S,5R,8S)-4,8-dimethyl-4-undecyl-2,3-dioxabicyclo[3.3.1]nonan-7-one]	5.9
CCCCCCCC/C=C/[C@]1(C)OO[C@@H]2C[C@H]1CC(=O)[C@@H]2C [CHCH(CH2)7CH3 (1R, 4R, 5S, 8R), (1R,4R,5S,8R)-4-[(E)-1-decenyl]-4.8-dimethyl-2,3-dioxabicyclo[3.3.1]nonan-7-one]	6.2
CCCCCCCC/C=C/[C@@]1(C)OO[C@@H]2C[C@H]1CC(=O)[C@@H]2C [CHCH(CH2)7CH3 (1R, 4S, 5S, 8R), (1R,4S,5S,8R)-4-[(E)-1-decenyl]-4,8-dimethyl-2,3-dioxabicyclo[3.3.1]nonan-7-one]	4.5
C[C@H]1C(=O)C[C@@H]2C[C@H]1OO[C@]2(C)/C=C\c1cc(C(F)(F)F)nc2cc(C(F)(F)F)ccc12 [drawing 9 (1R, 4S, 5S, 8R)]	6.2
C[C@@H]1C(=O)C[C@H]2C[C@@H]1OO[C@@]2(C)/C=C\c1cc(C(F)(F)F)nc2cc(C(F)(F)F)ccc12 [drawing 9 (1S, 4R, 5R, 8S)]	5.4
C[C@@H]1C(=O)C[C@H]2C[C@@H]1OO[C@@]2(C)/C=C\c1ccc(Cl)cc1Cl [drawing 10 (1S, 4R, 5R, 8S)]	4.6

Test system: not listed separately
Experiment: Toxicity, single oral administration to mice
Conditions: mouse, in vivo, p.o., no toxic symptoms at the dosage indicated, read-out: Toxicity, Dosage (no toxic symptoms observed at this amount)
Text: The results which have been obtained with representative members of the class of substance defined by formula I in the previously described experiment are compiled in the following Table. Moreover, the Table contains data concerning the toxicity of some of these compounds.

SMILES	NOAEL [mg/kg]
CCCCCCCCCCC[C@@]1(C)OO[C@@H]2C[C@H]1CC(=O)[C@@H]2C [(CH2)10CH3 (1R, 4R, 5S, 8R), (1R,4R,5S,8R)-4,8-dimethyl-4-undecyl-2,3-dioxabicyclo[3.3.1]nonan-7-one]	3000
CCCCCCCCCCC[C@]1(C)OO[C@@H]2C[C@H]1CC(=O)[C@@H]2C [(CH2)10CH3 (1R, 4S, 5S, 8R), (1R,4S,5S,8R)-4,8-dimethyl-4-undecyl-2,3-dioxabicyclo[3.3.1]nonan-7-one]	3000
C[C@H]1C(=O)C[C@@H]2C[C@H]1OO[C@]2(C)/C=C\c1cc(C(F)(F)F)nc2cc(C(F)(F)F)ccc12 [drawing 9]	6000

From patent US4977184A, “Bicyclic peroxides compositions for and treatment of malaria therewith” (Hoffmann-La Roche Inc., priority 1987, dated 1990)
